According to patent US10060892B2, “Tripodal nitrate receptor” (University of Oregon, priority 2013, dated 2018):

How the values were obtained:
[1] = 1H NMR titration with TBA nitrate in 10% DMSO-d6/CDCl3; format: binding; settings: 10% DMSO-d6/CDCl3, from Ka values
Source text: (§1) To simplify the mode of binding in these receptors, as well as to lower the association constant of nitrate and bromide to a measurable amount, other solvent systems were investigated. Low solubility of the tripodal receptors limited the solvent possibilities. We also aimed to maintain competition between binding of the anion and solvent molecules to provide further evidence for the strong binding of nitrate in competitive solvents, a critical feature for applications in environmental monitoring. […] In addition, DMSO is a strong hydrogen bond acceptor, thus a lower association constant would be expected. Initial upfield shifts, followed by downfield shifts of the urea protons were observed upon the addition of TBANO3 1 mM solutions of 1 in 2% DMSO-d6/CDCl3 and 5% DMSO-d6/CDCl3. […]
(§2) Titrations in 10% DMSO-d6/CDCl3 were performed at a constant 1 mM concentration of 1. The change in chemical shift was monitored throughout the titration and fit to a 1:1 model using linear regression analysis. […] The binding constants of each anion investigated and the calculated total Δδ values based on the determined constant are presented in Table 2. […]
Similar to 1, host:guest complexes of 2 were investigated through 1H NMR spectroscopy titrations in 10% DMSO-d6/CDCl3. […] The urea protons (H^a and H^b), nitrophenyl protons (H^c and H^d), and core proton (H^core) were monitored throughout the titrations. […]

[2] = 1H NMR titration with TBA iodide in 10% DMSO-d6/CDCl3; format: binding; settings: I^− (TBA salt), 10% DMSO-d6/CDCl3, 1 mM receptor, 1:1 model
Source text: as §1, with “DMSO-d6/CDCl3. The titration curves indicate a more complicated system than a 1:1 model; however, the data still could not be fit to a standard model.” for “DMSO-d6/CDCl3.”
as §2

[3] = 1H NMR titration with TBA chloride in acetone-d6; format: binding; settings: Cl^− (TBA salt), acetone-d6, 0.5 mM receptor
Method: (§3) Interaction of 1 with anions in solution was investigated by 1H NMR spectroscopy. Initial titration experiments were performed at 0.5 mM of 1 in acetone-d6 due to its limited solubility in other solvents, despite the potential solvent competition as a hydrogen bond acceptor. […] Changes in chemical shifts of H^c and H^d were also observed, but to a lesser extent, with H^d moving upfield. Large downfield shifts of the urea protons indicate hydrogen bonds of the ureas to the anion as the main mode of binding. Change in chemical shift corresponding to the addition of NO3^− or Br^− begins to maximize at approximately 0.5 equiv. of guest, indicating a possible 2:1 binding model in acetone.

[4] = 1H NMR titration with TBA bromide in acetone-d6; settings: Br^−, acetone-d6, 0.5 mM receptor; lower limit inferred from sharp binding curve, no reproducible fit
Method: as §3

[5] = 1H NMR titration with TBA bromide in 10% DMSO-d6/CDCl3; format: binding; settings: Br^− (TBA salt), 10% DMSO-d6/CDCl3, 1 mM receptor, 1:1 model
Source text: as §1, with “DMSO-d6/CDCl3. The titration curves indicate a more complicated system than a 1:1 model; however, the data still could not be fit to a standard model.” for “DMSO-d6/CDCl3.”
as §2

| 1:1 binding constant [3] [M⁻¹] | SMILES | selectivity for nitrate over chloride [1] | Association constant Ka [2] | Ka [4] [M⁻¹] | Association constant Ka [5] |
| --- | --- | --- | --- | --- | --- |
| – | CC(C)(C)c1ccc(NC(=O)Nc2ccc([N+](=O)[O-])cc2)c(C#Cc2cc(C#Cc3cc(C(C)(C)C)ccc3NC(=O)Nc3ccc([N+](=O)[O-])cc3)cc(C#Cc3cc(C(C)(C)C)ccc3NC(=O)Nc3ccc([N+](=O)[O-])cc3)c2)c1 [compound 2] | loss in selectivity for NO3^− over Cl^− | – | – | – |
| 8620 ± 1170 | CC(C)(C)c1ccc(NC(=O)Nc2ccc([N+](=O)[O-])cc2)c(C#Cc2c(F)c(C#Cc3cc(C(C)(C)C)ccc3NC(=O)Nc3ccc([N+](=O)[O-])cc3)c(F)c(C#Cc3cc(C(C)(C)C)ccc3NC(=O)Nc3ccc([N+](=O)[O-])cc3)c2F)c1 [compound 1] | moderate selectivity for nitrate | 755 (85) M^−1 | > 104 | 8320 (876) M^−1 |
